From article PMC11249776, “Synthesis of Structural ADP-Ribose Analogues as Inhibitors for SARS-CoV-2 Macrodomain 1” (Organic Letters, 2024)

target: T1, SARS-CoV-2 NSP3 macrodomain (Severe acute respiratory syndrome coronavirus 2, UniProt P0DTD1); assay: Mac1 HTRF assay (displacement of ADP-ribose conjugated biotin peptide); format: binding; settings: not given
T1 construct: SARS-CoV-2 NSP3 macrodomain

SMILES | IC50 [nM]
C#CC1OC(COP(=O)(O)OP(=O)(O)OCC2OC(n3cnc4c(N)ncnc43)C(O)C2O)C(O)C1O (stereo not shown) [Compound 5] | 2400 ± 200
N#C[C@@]1(c2ccc3c(N)ncnn23)O[C@H](COP(=O)(O)OP(=O)(O)OC[C@H]2O[C@H](N=[N+]=[N-])[C@H](O)[C@@H]2O)[C@@H](O)[C@H]1O [Compound 11, α-N3-NDPr] | 30 ± 1.5
COC1OC(COP(=O)(O)OP(=O)(O)OCC2OC(n3cnc4c(N)ncnc43)C(O)C2O)C(F)C1O (stereo not shown) [Compound 8] | > 200000
[N-]=[N+]=NC1OC(COP(=O)(O)OP(=O)(O)OCC2OC(n3cnc4c(N)ncnc43)C(O)C2O)C(O)C1OCc1ccccc1 (stereo not shown) [Compound 7] | 80000 ± 1700
COC1OC(COP(=O)(O)OP(=O)(O)OCC2OC(n3cnc4c(N)ncnc43)C(O)C2O)C(O)C1OCc1ccccc1 (stereo not shown) [Compound 6] | > 200000
CON=C1C(COP(=O)(O)OP(=O)(O)OCC2OC(n3cnc4c(N)ncnc43)C(O)C2O)OC(OC)C1O (stereo not shown) [Compound 9] | > 200000
CO[C@H]1O[C@H](COP(=O)(O)OP(=O)(O)OC[C@H]2O[C@@](C#N)(c3ccc4c(N)ncnn34)[C@H](O)[C@@H]2O)[C@@H](O)[C@H]1O [Compound 10, α-O-methyl-NDPr] | 63 ± 5

same assay, conditions: qualitative statement

SMILES | Mac1 inhibition / affinity in words
COC1OC(COP(=O)(O)OP(=O)(O)OCC2OC(n3cnc4c(N)ncnc43)C(O)C2O)C(F)C1O (stereo not shown) [Compound 8] | drastically diminished binding affinity
[N-]=[N+]=NC1OC(COP(=O)(O)OP(=O)(O)OCC2OC(n3cnc4c(N)ncnc43)C(O)C2O)C(O)C1OCc1ccccc1 (stereo not shown) [Compound 7] | poor affinity
COC1OC(COP(=O)(O)OP(=O)(O)OCC2OC(n3cnc4c(N)ncnc43)C(O)C2O)C(O)C1OCc1ccccc1 (stereo not shown) [Compound 6] | poor affinity
